Test system: iMSCs
Assay: iMSC expansion, seeded at 1000 cells/well, day 10 morphology and cell number
Format: cell-based
Experimental: Cryopreserved iMSCs (RC01005, Nuwacell Co., Ltd.) were seeded in 6-well plates at 1000 cells/well in M1 medium to thaw the cells. The medium was replaced 24 h later with 2 ml/well of the following medium: M1; or M2 (5% HPLT) further supplemented with or without one or more growth factors (F: FGF2 (10 ng/ml, Nuwacell Co., Ltd.); P: PDFG-BB (10 ng/ml, Cat. No.: 100-14B-100, Peprotech); T: TGFβ1 (1 ng/ml, Cat. No.: 100-21, Peprotech)) in the absence or presence of hydrocortisone (1 μM, Cat. No.: 4098, Tocris). […] The medium was changed with the same medium every three days. On day 10 of culture, the cells were digested by solase (RP01021, Nuwacell Co., Ltd.) for 3 min and collected, and then centrifugated, and with the supernatant removed, resuspended in the corresponding medium, and the number of iMSC cells was counted by cell viability analyzer (Vi-CELLTMXR, BECKMAN COULTER) (FIG. 5).

Molecule	effect of addition on iMSC proliferation (Example 5, hydrocortisone 1 μM added to M2 (5% HPLT))	effect of addition to M3 on iMSC growth (Example 13, 4 mg/L dialyzed HSA, 25 μg/ml heparin sodium, FIG. 13)
C[C@]12CCC(=O)C=C1CC[C@@H]1[C@@H]2[C@@H](O)C[C@@]2(C)[C@H]1CC[C@]2(O)C(=O)CO [hydrocortisone]	could promote the iMSC proliferation	
heparin sodium		could further promote iMSC growth

Source: patent US12359173B2, “Serum-free and xeno-free culture medium for expanding mesenchymal stem cells” (NUWACELL BIOTECHNOLOGIES CO., LTD., priority 2023, dated 2025)
